Data as given in patent publication US20200172473A1, “DUAL MODULATORS OF FARNESOID X RECEPTOR AND SOLUBLE EPOXIDE HYDROLASE” (JOHANN WOLFGANG GOETHE-UNIVERSITÄT FRANKFURT AM MAIN, priority 2017, published 2020).

Key:
human FXR = target: T1, human FXR (Homo sapiens, UniProt Q96RI1); test: full-length FXR reporter gene (transactivation) assay in HeLa cells; assay type: cell-based; conditions: for Emax: HeLa, read-out: FXR activation max. rel. activation (converted); for EC50: full-length FXR reporter gene assay, HeLa cells, read-out: FXR activation EC50
T1 construct: characterized in a full-length (fl) FXR reporter gene assay in HeLa cells; expressed in transfected cells; host or cells: HeLa
T1 sequence (Q96RI1 1-486): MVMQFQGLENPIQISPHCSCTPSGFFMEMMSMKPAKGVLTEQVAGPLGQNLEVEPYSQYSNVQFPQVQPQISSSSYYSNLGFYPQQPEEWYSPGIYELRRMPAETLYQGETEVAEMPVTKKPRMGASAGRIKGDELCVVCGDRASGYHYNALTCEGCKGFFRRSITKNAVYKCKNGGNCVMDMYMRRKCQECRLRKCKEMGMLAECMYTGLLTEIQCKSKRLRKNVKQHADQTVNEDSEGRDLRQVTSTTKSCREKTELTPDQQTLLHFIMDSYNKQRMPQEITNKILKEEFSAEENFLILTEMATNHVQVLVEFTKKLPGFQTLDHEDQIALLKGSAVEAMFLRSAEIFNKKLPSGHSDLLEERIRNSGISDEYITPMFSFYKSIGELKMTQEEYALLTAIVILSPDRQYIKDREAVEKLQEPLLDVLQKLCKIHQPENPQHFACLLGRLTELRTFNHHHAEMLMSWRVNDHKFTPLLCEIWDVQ
T1 sequence (P19793 1-462 partner): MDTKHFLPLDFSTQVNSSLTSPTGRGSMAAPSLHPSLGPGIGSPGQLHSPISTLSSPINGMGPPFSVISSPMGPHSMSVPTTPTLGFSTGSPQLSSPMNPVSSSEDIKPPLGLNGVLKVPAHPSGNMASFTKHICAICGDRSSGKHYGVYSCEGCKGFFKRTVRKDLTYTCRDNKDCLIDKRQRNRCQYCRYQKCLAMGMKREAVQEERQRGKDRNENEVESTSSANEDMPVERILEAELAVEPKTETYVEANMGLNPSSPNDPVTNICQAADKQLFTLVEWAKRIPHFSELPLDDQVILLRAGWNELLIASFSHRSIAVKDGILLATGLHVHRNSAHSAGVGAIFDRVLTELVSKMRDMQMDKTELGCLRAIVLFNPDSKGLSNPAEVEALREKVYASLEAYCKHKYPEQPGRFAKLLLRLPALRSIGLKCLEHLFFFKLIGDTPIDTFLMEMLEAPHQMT
Text: (§1) This assay is based on a reporter construct containing a firefly luciferase under the control of the FXR response element from bile salt export protein (BSEP). FXR and its hetero dimer partner retinoid X receptor (RXR) as expression constructs under the control of a CMV promoter as well as a constitutively expressed renilla luciferase (SV40 promoter) for normalization and toxicity control were co-transfected. […] The sEH inhibitory potency of the test compounds was quantified in a fluorescence-based assay using recombinant enzyme and the fluorogenic sEH substrate PHOME^37 that is hydrolyzed to a fluorescent 6-methoxynaphtaldehyde by sEH.
Plasmids: pcDNA3-hFXR contains the sequence of human FXR and was already published elsewhere.^47 pGL3 basic (Promega Corporation, Fitchburg, Wis., USA) was used as a reporter plasmid, with a shortened construct of the promotor of the bile salt export protein (BSEP) cloned into the SacI/NheI cleavage site in front of the luciferase gene.^48 pRL-V40 (Promega) was transfected as a control for normalization of transfection efficiency and cell growth. pSG5-hRXR was already published elsewhere as well.^49
Assay procedure: HeLa cells were grown in DMEM high glucose supplemented with 10% FCS, sodium pyruvate (1 mM), penicillin (100 U/mL) and streptomycin (100 μg/mL) at 37° C. and 5% CO2. […] Transient transfection of HeLa cells with BSEP-pGL3, pRL-SV40 and the expression plasmids pcDNA3-hFXR and pSG5-hRXR was carried out using calcium phosphate transfection method. […] Each concentration was tested in triplicate wells and each experiment was repeated independently at least three times. […] Luminescence was measured with a Tecan Infinite M200 luminometer (Tecan Deutschland GmbH, Crailsheim, Germany). Normalization of transfection efficiency and cell growth was done by division of firefly luciferase data by renilla luciferase data multiplied by 1000 resulting in relative light units (RLU). Fold activation was obtained by dividing the mean RLU of the tested compound at a respective concentration by the mean RLU of untreated control. […] EC50 and standard error of the mean values were calculated with the mean relative activation values of at least three independent experiments by SigmaPlot 10.0 (Systat Software GmbH, Erkrath, Germany) using a four parameter logistic regression.

[1] = target: T2, cellular sEH (HepG2 cell homogenates) (Homo sapiens, UniProt P34913); conditions: 10 μM (positive control); DMSO 63±16, blank 499±123
T2 sequence (P34913 1-555): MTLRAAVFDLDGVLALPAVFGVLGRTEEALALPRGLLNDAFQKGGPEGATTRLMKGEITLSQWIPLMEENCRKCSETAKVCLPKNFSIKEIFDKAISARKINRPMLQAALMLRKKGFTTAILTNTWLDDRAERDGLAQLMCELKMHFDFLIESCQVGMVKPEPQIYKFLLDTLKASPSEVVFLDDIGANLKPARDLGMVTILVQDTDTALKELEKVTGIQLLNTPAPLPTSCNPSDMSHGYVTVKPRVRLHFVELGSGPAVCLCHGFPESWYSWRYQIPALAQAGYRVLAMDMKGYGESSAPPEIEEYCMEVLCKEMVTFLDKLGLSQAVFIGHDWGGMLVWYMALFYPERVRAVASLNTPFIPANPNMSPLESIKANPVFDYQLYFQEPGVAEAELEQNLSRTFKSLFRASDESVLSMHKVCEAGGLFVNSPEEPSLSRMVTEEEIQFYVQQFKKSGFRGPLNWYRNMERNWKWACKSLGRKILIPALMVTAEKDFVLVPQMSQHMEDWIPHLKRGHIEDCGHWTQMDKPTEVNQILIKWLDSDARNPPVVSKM
Description: 25 ng (+)14(15)-EET-d11 (Cayman Chemical, Ann Arbor, USA) was added and incubation was continued for additional to min at 37° C. A blank test was performed with PBS (containing 0.1 mg/ml BSA) treated likewise. The reactions were stopped by adding 100 μl of ice cold methanol. After centrifugation (2000 rpm, 4° C., 5 min), supernatants were analyzed by LC-MS/MS and the amounts of (±)14(15)-EET-d11 and the corresponding (±)14(15)-DHET-d11 were determined.

aqueous solubility = assay type: physicochemical; conditions: LLOQ 0.1 μg/mL
recombinant human sEH = target: T3, recombinant human sEH (Homo sapiens, UniProt P34913); test: fluorescence-based sEH activity assay with PHOME substrate; assay type: biochemical; conditions: recombinant human sEH, PHOME; read-out: sEH inhibition IC50
T3 sequence (P34913 1-555): T2 sequence (P34913 1-555)
Text: as §1
The sEH inhibitory potency of the compounds were determined in a fluorescence-based 96-well sEH activity assay using recombinant human enzyme^50,51. Non-fluorescent PHOME (3-phenylcyano-(6-methoxy-2-naphthalenyl)methyl ester 2-oxiraneacetic acid; Cayman Chemicals) which can be hydrolyzed by the sEH to fluorescent 6-methoxynaphthaldehyde served as substrate. Recombinant human sEH (in Bis-Tris buffer, pH 7, with 0.1 mg/mL BSA containing a final concentration of 0.01% Triton-X 100) was pre-incubated with test compounds (in DMSO, final DMSO concentration: 1%) for 30 min at room temperature. […] A blank control (no protein and no compound) as well as a positive control (no compound) were executed. All experiments were conducted in triplicate and repeated in at least three independent experiments. For IC50 calculation, dose-response curves of increasing compound concentrations were recorded.

[2] = system: PPARγ target genes CD36 and FAM3A; test: PPARγ target gene mRNA quantification (qRT-PCR) in HepG2 cells; assay type: cell-based; conditions: HepG2, 1 μM

Compound | Emax (human FXR) | IC50 (recombinant human sEH) | EC50 (human FXR) | further results
O=C(Nc1ccc(I)cc1)NC1CCCCC1 [CIU, reference compound] |  |  |  | activity in FXR reporter gene assay (human FXR; 10 μM): no activity; (±)14(15)-EET-d11/(±)14(15)-DHET-d11 ratio [1]: 519±55
CC(C)(C)c1ccc(C(=O)NCc2ccc(NC(=O)C(F)(F)F)cc2Cl)cc1 [compound 56] | 21% |  |  | aqueous solubility (aqueous solubility): < 0.1 µg/mL
CC(C)(C)c1ccc(C(=O)NCc2ccc(NS(C)(=O)=O)cc2Cl)c(O)c1 [compound 77, 4-(tert-Butyl-2-hydroxy)-N-(2-chloro-4-(methylsulfonamido)benzyl)benzamide] |  | 380 ± 50 nM |  | FXR activation (result in words) (human FXR): antagonistic
CC(C)S(=O)(=O)Nc1ccc(CNC(=O)c2ccc(C(C)(C)C)cc2)c(Cl)c1 [compound 81, 4-(tert-Buty)-N-(2-chloro-4-(isopropylsulfonamide)benzyl)-benzamide] | 11% | 11 ± 0.3 nM | 420 ± 20 nM | 
CCS(=O)(=O)Nc1ccc(CNC(=O)c2ccc(C(C)(C)C)cc2)c(Cl)c1 [compound 82, 4-(tert-Butyl)-N-(2-chloro-4-(ethylsulfonamido)benzyl)-benzamide] | 23% | 6 ± 0.5 nM | 490 ± 50 nM | 
CCc1ccc(CCOc2ccc(CC3SC(=O)NC3=O)cc2)nc1 (centres unmarked) [pioglitazone, reference compound] |  |  |  | CD36 mRNA expression compared to vehicle set as 100% [2]: 353±43%; FAM3A mRNA expression compared to vehicle set as 100% [2]: 310±66%

More lines, main results first:

Emax (human FXR) | IC50 (recombinant human sEH) | EC50 (human FXR) | Compound | further results
24% | 16 ± 0.6 nM | 3 ± 0.001 nM | CC(C)(C)c1ccc(C(=O)NCc2ccc(NS(C)(=O)=O)cc2Cl)cc1O [compound 78, 4-(tert-Butyl-3-hydroxy)-N-(2-chloro-4-(methylsulfonamido)benzyl)benzamide] | 
19% | 2 ± 0.08 nM | 1200 ± 180 nM | CC(C)(C)c1ccc(C(=O)NCc2ccc(NS(C)(=O)=O)cc2C(F)(F)F)cc1 [compound 80, 4-(tert-Butyl)-N-(2-trifluoromethyl-4-(methylsulfonamido)benzyl)benzamide] | 
23% | 45 ± 2 nM | 1460 ± 23 nM | CN(C)c1ccc(C(=O)NCc2ccc(NS(C)(=O)=O)cc2Cl)cc1 [compound 83, 4-(Dimethylamino)-N-(2-chloro-4-(methylsulfonamido)benzyl)benzamide] | 
31% | 4 ± 0.4 nM | 540 ± 20 nM | CS(=O)(=O)Nc1ccc(CNC(=O)c2ccc(C3(C(F)(F)F)CC3)cc2)c(Cl)c1 [compound 84, 4-((1-Trifluoromethyl)cycloprop-1-yl)-N-(2-chloro-4-(methylsulfonamido)benzyl)benzamide] | 
